Patent US11834496B2, “Composition of a drug carrier, pharmaceutical composition thereof, preparation method and use method thereof” (EOS BIOMATERIALS INC., priority 2020, dated 2023)

Experiment: Drug release rate test of pharmaceutical composition (dialysis bag in PBS, HPLC)
Assay type: physicochemical
Settings: 37° C.; for drug release rate: gentamicin 50 mg, 200 ml PBS
Method: In this test, a total of 3 ml solutions of the first and second mixtures (the weight ratio of sodium alginate:tricalcium phosphate:methylcellulose:sodium hyaluronate:calcium chloride was 36:36:15:80:20) and 50 mg of gentamicin were mixed to prepare a pharmaceutical composition containing gentamicin to be an experimental group. Then, the pharmaceutical composition containing gentamicin was placed in a dialysis bag. At the same time, 50 mg of gentamicin was dissolved in 3 ml of water as a control group.
Next, two 500 ml beaker were respectively added with 200 ml of phosphate buffered saline (PBS) solution. The prepared solutions of the experimental group and control group were respectively placed in dialysis bags, which were then placed in the PBS solutions. After that, the beakers, containing the dialysis bag and the PBS solution, were slightly shaken at 37° C. to allow the release of the drug from the dialysis bag to the PBS solution. In the drug release period, the PBS solution of the experimental and control groups are sampled at 15 minutes, 30 minutes, 45 minutes, 60 minutes, 75 minutes, 90 minutes, 105 minutes, 120 minutes, 150 minutes, 180 minutes, 1 day, 2 days, 3 days, 4 days, 5 days, 6 days, and 7 days, from the time start shaking. The sampled volume of the PBS solutions in beakers was 1 mL, and 1 mL of fresh PBS solution was added back to the sampled beakers. The concentrations of the gentamicin released in the PBS solution from the dialysis bag were analyzed by high performance liquid chromatography (HPLC).

**Q.** With gentamicin as the substance, how does the “cumulative release amount of the gentamicin released in the PBS solution” value (PBS, in less than 30 hours) read?
**A.** The value was about 100%.

**Q.** And the drug release rate (within 180 hours, relative to experimental group)?
**A.** Its drug release rate is “much faster”.

**Q.** And the drug release rate (within the first 3 hours)?
**A.** Its drug release rate is “much faster”.
